Values quoted from earlier work as cited in patent US20070141182A1, “Combination of multiple nonteroidal antiinflammatory drugs and muscle relaxants for local treatment of musculoskeletal pain” (priority 2005, published 2007).
Values belong to the compound of their own block, whether it stands above or below them.

How the values were obtained:
[1] = dissolved in lecithin microemulsion gel
[2] = for patient ratings of efficacy versus placebo: topical commercial forms
[3] = test system: COX-1 and COX-2
[4] = compared with more traditional NSAIDs
[5] = test system: prostaglandins
[6] = topical gel, 6 patients
[7] = 2.5% gel daily, 10 healthy subjects
[8] = 75 mg/ml in the donor gel, human skin

Compound: COc1ccc2c(c1)c(CC(=O)O)c(C)n2C(=O)c1ccc(Cl)cc1 [indomethacin]
steady-state flux [1]: about 1 μg h^−1 cm^−2
efficacy of topical versus oral administration ([2]; human, in vivo, po): as effective as therapeutic doses of oral indomethacin
patient ratings of efficacy versus placebo [2]: superior efficacy
COX-1 / COX-2 isoform selectivity of inhibition [3]: preferentially inhibit COX-1

Compound: COc1ccc2cc(CCC(C)=O)ccc2c1 [Nabumetone]
COX-1 / COX-2 isoform selectivity of inhibition [3]: more selectively inhibit COX-2
incidence of gastric lesions [4]: lower incidence of gastric lesions

Compound: magnesium choline trisalicylate
inhibition of prostaglandins [5]: only weakly inhibit prostaglandins

Compound: O=C(Oc1ccccc1C(=O)O)c1ccccc1O [salsalate]
inhibition of prostaglandins [5]: only weakly inhibit prostaglandins

Compound: CC(=O)Oc1ccccc1C(=O)O [ASA, acetylsalicylic acid]
decrease in pain (VAS) (oral ASA 500 mg): 15.4%
patients with a poor response (oral administration): 79%

Compound: CC(C(=O)O)c1ccc(-c2ccccc2)c(F)c1 (centres unmarked) [Flurbiprofen, flurbiprofen]
COX-1 / COX-2 isoform selectivity of inhibition [3]: inhibit both COX-1 and COX-2 equally

Compound: CN1C(C(=O)Nc2ccccn2)=C(O)c2ccccc2S1(=O)=O [Piroxicam, piroxicam]
patient ratings of efficacy versus placebo [2]: superior efficacy
COX-1 / COX-2 isoform selectivity of inhibition [3]: preferentially inhibit COX-1

steady-state flux [1]: about 1 μg h^−1 cm^−2
Compound: O=C(O)Cc1ccccc1Nc1c(Cl)cccc1Cl [diclofenac]

Compound: CS(=O)(=O)c1ccc(C2=C(c3ccccc3)C(=O)OC2)cc1 [rofecoxib]
COX-1 / COX-2 isoform selectivity of inhibition [3]: highly selective and potent inhibitors of COX-2

Compound: CC(C)Cc1ccc(C(C)C(=O)O)cc1 (centres unmarked) [ibuprofen]
patient ratings of efficacy versus placebo [2]: superior efficacy
COX-1 / COX-2 isoform selectivity of inhibition [3]: inhibit both COX-1 and COX-2 equally

Compound: Cc1ccc(Cl)c(Nc2ccccc2C(=O)O)c1Cl [meclofenamate]
COX-1 / COX-2 isoform selectivity of inhibition [3]: inhibit both COX-1 and COX-2 equally

ketoprofen concentration in capsular sample [6]: 2.35 µg/g
ketoprofen concentration in intra-articular adipose tissue [6]: 4.7 µg/g
ketoprofen concentration in synovial fluid [6]: 1.4 µg/g
plasma concentrations as share of the daily dose applied [7]: 2.6%
Compound: CC(C(=O)O)c1cccc(C(=O)c2ccccc2)c1 (centres unmarked) [ketoprofen]
patient ratings of efficacy versus placebo [2]: superior efficacy

flux through the skin [8]: 47 μg.h^−1 cm^−2
Compound: CC(C)(C)NCC(O)c1cc(Br)no1 (centres unmarked) [broxaterol]

Compound: CCc1cccc2c3c([nH]c12)C(CC)(CC(=O)O)OCC3 (centres unmarked) [etodolac]
COX-1 / COX-2 isoform selectivity of inhibition [3]: more selectively inhibit COX-2
incidence of gastric lesions [4]: lower incidence of gastric lesions
